In patent US11498899B2, “Nitrone herbicides” (FMC Corporation, priority 2016, dated 2022):

Tests used:
[1] = system: barnyardgrass (Echinochloa crus-galli); assay: Test B flooded paddy test, visual rating 0-100; conditions: Flood, 250 g ai/ha, applied to paddy water, rated after 13 to 15 days
[2] = system: barnyardgrass (Echinochloa crus-galli); assay: Test A preemergence, visual injury rating 0-100 (0 no effect, 100 complete control); format: in vivo
kochia (Kochia scoparia) [3] = assay: Test A postemergence, visual injury rating 0-100; format: in vivo; conditions: 0 to 100 scale
[4] = system: foxtail, giant (giant foxtail, Setaria faberii); assay: Test A postemergence, visual injury rating 0-100; format: in vivo; conditions: 0 to 100 scale
[5] = system: blackgrass (Alopecurus myosuroides); assay: Test A postemergence, visual injury rating 0-100; format: in vivo; conditions: 0 to 100 scale
corn (Zea mays) = assay: Test A postemergence, visual injury rating 0-100; format: in vivo; conditions: 0 to 100 scale
[6] = system: ragweed (common ragweed, Ambrosia elatior); assay: Test A postemergence, visual injury rating 0-100; format: in vivo; conditions: 0 to 100 scale
[7] = system: barnyardgrass (Echinochloa crus-galli); assay: Test A postemergence, visual injury rating 0-100; format: in vivo; conditions: 0 to 100 scale
[8] = system: ryegrass, Italian (Italian ryegrass, Lolium multiflorum); assay: Test A postemergence, visual injury rating 0-100; format: in vivo; conditions: 0 to 100 scale
[9] = system: wheat (Triticum aestivum); assay: Test A postemergence, visual injury rating 0-100; format: in vivo; conditions: 0 to 100 scale
[10] = system: pigweed (Amaranthus retroflexus); assay: Test A postemergence, visual injury rating 0-100; format: in vivo; conditions: 0 to 100 scale
[11] = system: galium (catchweed bedstraw, Galium aparine); assay: Test A postemergence, visual injury rating 0-100; format: in vivo; conditions: 0 to 100 scale
kochia (Kochia scoparia) [12] = assay: Test A preemergence, visual injury rating 0-100; format: in vivo
[13] = system: foxtail, giant (giant foxtail, Setaria faberii); assay: Test A preemergence, visual injury rating 0-100; format: in vivo
[14] = system: ragweed (common ragweed, Ambrosia elatior); assay: Test A preemergence, visual injury rating 0-100; format: in vivo
[15] = system: ryegrass, Italian (Italian ryegrass, Lolium multiflorum); assay: Test A preemergence, visual injury rating 0-100; format: in vivo; conditions: 500 g ai/ha
[16] = system: pigweed (Amaranthus retroflexus); assay: Test A preemergence, visual injury rating 0-100; format: in vivo
rice (Oryza sativa) = assay: Test B flooded paddy test, visual rating 0-100 (0 no effect, 100 complete control); conditions: Flood, 250 g ai/ha, applied to paddy water, rated after 13 to 15 days
[17] = system: ducksalad (Heteranthera limosa); assay: Test B flooded paddy test, visual rating 0-100; conditions: Flood, 250 g ai/ha, applied to paddy water, rated after 13 to 15 days

Compound: CC1=[N+]([O-])C(C(=O)Nc2cccc(F)c2F)C(c2ccc(OC(F)(F)F)c(F)c2)C1 (racemic) [Compound 113]
- Barnyardgrass plant response rating (0 to 100 scale) [1]: 0
- Barnyardgrass plant response rating (0 to 100 scale) ([2]; 125 g ai/ha): 90
- Barnyardgrass plant response rating (0 to 100 scale) ([2]; 500 g ai/ha): 90
- Kochia plant response rating (kochia (Kochia scoparia) [3]; 125 g ai/ha): 0
- Kochia plant response rating (kochia (Kochia scoparia) [3]; 500 g ai/ha): 40
- Foxtail, Giant plant response rating ([4]; 125 g ai/ha): 80
- Foxtail, Giant plant response rating ([4]; 500 g ai/ha): 90
- Blackgrass plant response rating ([5]; 125 g ai/ha): 40
- Blackgrass plant response rating ([5]; 500 g ai/ha): 80
- Corn plant response rating (corn (Zea mays); 125 g ai/ha): 20
- Corn plant response rating (corn (Zea mays); 500 g ai/ha): 80
- Ragweed plant response rating ([6]; 125 g ai/ha): 50
- Ragweed plant response rating ([6]; 500 g ai/ha): 50
- Barnyardgrass plant response rating ([7]; 125 g ai/ha): 30
- Barnyardgrass plant response rating ([7]; 500 g ai/ha): 80
- Ryegrass, Italian plant response rating ([8]; 125 g ai/ha): 0
- Ryegrass, Italian plant response rating ([8]; 500 g ai/ha): 50
- Wheat plant response rating ([9]; 125 g ai/ha): 0
- Wheat plant response rating ([9]; 500 g ai/ha): 50
- Pigweed plant response rating ([10]; 125 g ai/ha): 0
- Pigweed plant response rating ([10]; 500 g ai/ha): 20
- Galium plant response rating ([11]; 125 g ai/ha): 50
- Galium plant response rating ([11]; 500 g ai/ha): 70
- Kochia plant response rating (0 to 100 scale) (kochia (Kochia scoparia) [12]; 125 g ai/ha): 10
- Kochia plant response rating (0 to 100 scale) (kochia (Kochia scoparia) [12]; 500 g ai/ha): 90
- Foxtail, Giant plant response rating (0 to 100 scale) ([13]; 125 g ai/ha): 90
- Foxtail, Giant plant response rating (0 to 100 scale) ([13]; 500 g ai/ha): 90
- Ragweed plant response rating (0 to 100 scale) ([14]; 125 g ai/ha): 0
- Ragweed plant response rating (0 to 100 scale) ([14]; 500 g ai/ha): 70
- Ryegrass, Italian plant response rating (0 to 100 scale) [15]: 80
- Pigweed plant response rating (0 to 100 scale) ([16]; 125 g ai/ha): 30
- Pigweed plant response rating (0 to 100 scale) ([16]; 500 g ai/ha): 60
- Rice plant response rating (0 to 100 scale) (rice (Oryza sativa)): 0
- Ducksalad plant response rating (0 to 100 scale) [17]: 0

Compound: CC1=[N+]([O-])C(C(=O)Nc2cccc(F)c2F)C(c2cc(F)c(C(F)(F)F)c(F)c2)C1 (racemic) [Compound 114]
- Barnyardgrass plant response rating (0 to 100 scale) [1]: 40
- Barnyardgrass plant response rating (0 to 100 scale) ([2]; 125 g ai/ha): 90
- Barnyardgrass plant response rating (0 to 100 scale) ([2]; 500 g ai/ha): 90
- Kochia plant response rating (kochia (Kochia scoparia) [3]; 125 g ai/ha): 20
- Kochia plant response rating (kochia (Kochia scoparia) [3]; 500 g ai/ha): 70
- Foxtail, Giant plant response rating ([4]; 125 g ai/ha): 80
- Foxtail, Giant plant response rating ([4]; 500 g ai/ha): 90
- Blackgrass plant response rating ([5]; 125 g ai/ha): 80
- Blackgrass plant response rating ([5]; 500 g ai/ha): 80
- Corn plant response rating (corn (Zea mays); 125 g ai/ha): 40
- Corn plant response rating (corn (Zea mays); 500 g ai/ha): 80
- Ragweed plant response rating ([6]; 125 g ai/ha): 30
- Ragweed plant response rating ([6]; 500 g ai/ha): 70
- Barnyardgrass plant response rating ([7]; 125 g ai/ha): 70
- Barnyardgrass plant response rating ([7]; 500 g ai/ha): 90
- Ryegrass, Italian plant response rating ([8]; 125 g ai/ha): 60
- Ryegrass, Italian plant response rating ([8]; 500 g ai/ha): 70
- Wheat plant response rating ([9]; 125 g ai/ha): 40
- Wheat plant response rating ([9]; 500 g ai/ha): 60
- Pigweed plant response rating ([10]; 125 g ai/ha): 0
- Pigweed plant response rating ([10]; 500 g ai/ha): 70
- Galium plant response rating ([11]; 125 g ai/ha): 70
- Galium plant response rating ([11]; 500 g ai/ha): 70
- Kochia plant response rating (0 to 100 scale) (kochia (Kochia scoparia) [12]; 125 g ai/ha): 20
- Kochia plant response rating (0 to 100 scale) (kochia (Kochia scoparia) [12]; 500 g ai/ha): 80
- Foxtail, Giant plant response rating (0 to 100 scale) ([13]; 125 g ai/ha): 90
- Foxtail, Giant plant response rating (0 to 100 scale) ([13]; 500 g ai/ha): 90
- Ragweed plant response rating (0 to 100 scale) ([14]; 125 g ai/ha): 80
- Ragweed plant response rating (0 to 100 scale) ([14]; 500 g ai/ha): 90
- Ryegrass, Italian plant response rating (0 to 100 scale) [15]: 90
- Pigweed plant response rating (0 to 100 scale) ([16]; 125 g ai/ha): 50
- Pigweed plant response rating (0 to 100 scale) ([16]; 500 g ai/ha): 80
- Rice plant response rating (0 to 100 scale) (rice (Oryza sativa)): 30
- Ducksalad plant response rating (0 to 100 scale) [17]: 60

Compound: CC1=[N+]([O-])C(C(=O)Nc2cccc(F)c2F)C(c2cccc(Oc3ncc(Cl)cn3)c2)C1 (racemic) [Compound 115]
- Barnyardgrass plant response rating (0 to 100 scale) [1]: 0
- Barnyardgrass plant response rating (0 to 100 scale) ([2]; 125 g ai/ha): 90
- Barnyardgrass plant response rating (0 to 100 scale) ([2]; 500 g ai/ha): 90
- Kochia plant response rating (kochia (Kochia scoparia) [3]; 125 g ai/ha): 0
- Kochia plant response rating (kochia (Kochia scoparia) [3]; 500 g ai/ha): 20
- Foxtail, Giant plant response rating ([4]; 125 g ai/ha): 0
- Foxtail, Giant plant response rating ([4]; 500 g ai/ha): 70
- Blackgrass plant response rating ([5]; 125 g ai/ha): 40
- Blackgrass plant response rating ([5]; 500 g ai/ha): 80
- Corn plant response rating (corn (Zea mays); 125 g ai/ha): 0
- Corn plant response rating (corn (Zea mays); 500 g ai/ha): 60
- Ragweed plant response rating ([6]; 125 g ai/ha): 0
- Ragweed plant response rating ([6]; 500 g ai/ha): 20
- Barnyardgrass plant response rating ([7]; 125 g ai/ha): 0
- Barnyardgrass plant response rating ([7]; 500 g ai/ha): 60
- Ryegrass, Italian plant response rating ([8]; 125 g ai/ha): 0
- Ryegrass, Italian plant response rating ([8]; 500 g ai/ha): 60
- Wheat plant response rating ([9]; 125 g ai/ha): 10
- Wheat plant response rating ([9]; 500 g ai/ha): 50
- Pigweed plant response rating ([10]; 125 g ai/ha): 0
- Pigweed plant response rating ([10]; 500 g ai/ha): 20
- Galium plant response rating ([11]; 125 g ai/ha): 40
- Galium plant response rating ([11]; 500 g ai/ha): 70
- Kochia plant response rating (0 to 100 scale) (kochia (Kochia scoparia) [12]; 125 g ai/ha): 0
- Kochia plant response rating (0 to 100 scale) (kochia (Kochia scoparia) [12]; 500 g ai/ha): 30
- Foxtail, Giant plant response rating (0 to 100 scale) ([13]; 125 g ai/ha): 20
- Foxtail, Giant plant response rating (0 to 100 scale) ([13]; 500 g ai/ha): 90
- Ragweed plant response rating (0 to 100 scale) ([14]; 125 g ai/ha): 0
- Ragweed plant response rating (0 to 100 scale) ([14]; 500 g ai/ha): 20
- Ryegrass, Italian plant response rating (0 to 100 scale) [15]: 80
- Pigweed plant response rating (0 to 100 scale) ([16]; 125 g ai/ha): 0
- Pigweed plant response rating (0 to 100 scale) ([16]; 500 g ai/ha): 0
- Rice plant response rating (0 to 100 scale) (rice (Oryza sativa)): 0
- Ducksalad plant response rating (0 to 100 scale) [17]: 0

Compound: CCOc1cc(OC)cc(C2CC(C)=[N+]([O-])C2C(=O)Nc2cccc(F)c2F)c1 (racemic) [Compound 116]
- Barnyardgrass plant response rating (0 to 100 scale) [1]: 0
- Barnyardgrass plant response rating (0 to 100 scale) ([2]; 125 g ai/ha): 80
- Barnyardgrass plant response rating (0 to 100 scale) ([2]; 500 g ai/ha): 90
- Kochia plant response rating (kochia (Kochia scoparia) [3]; 125 g ai/ha): 0
- Kochia plant response rating (kochia (Kochia scoparia) [3]; 500 g ai/ha): 20
- Foxtail, Giant plant response rating ([4]; 125 g ai/ha): 60
- Foxtail, Giant plant response rating ([4]; 500 g ai/ha): 90
- Blackgrass plant response rating ([5]; 125 g ai/ha): 80
- Blackgrass plant response rating ([5]; 500 g ai/ha): 80
- Corn plant response rating (corn (Zea mays); 125 g ai/ha): 30
- Corn plant response rating (corn (Zea mays); 500 g ai/ha): 60
- Ragweed plant response rating ([6]; 125 g ai/ha): 0
- Ragweed plant response rating ([6]; 500 g ai/ha): 0
- Barnyardgrass plant response rating ([7]; 125 g ai/ha): 50
- Barnyardgrass plant response rating ([7]; 500 g ai/ha): 80
- Ryegrass, Italian plant response rating ([8]; 125 g ai/ha): 0
- Ryegrass, Italian plant response rating ([8]; 500 g ai/ha): 80
- Wheat plant response rating ([9]; 125 g ai/ha): 20
- Wheat plant response rating ([9]; 500 g ai/ha): 70
- Pigweed plant response rating ([10]; 125 g ai/ha): 0
- Pigweed plant response rating ([10]; 500 g ai/ha): 0
- Galium plant response rating ([11]; 125 g ai/ha): 0
- Galium plant response rating ([11]; 500 g ai/ha): 20
- Kochia plant response rating (0 to 100 scale) (kochia (Kochia scoparia) [12]; 125 g ai/ha): 0
- Kochia plant response rating (0 to 100 scale) (kochia (Kochia scoparia) [12]; 500 g ai/ha): 0
- Foxtail, Giant plant response rating (0 to 100 scale) ([13]; 125 g ai/ha): 90
- Foxtail, Giant plant response rating (0 to 100 scale) ([13]; 500 g ai/ha): 90
- Ragweed plant response rating (0 to 100 scale) ([14]; 125 g ai/ha): 0
- Ragweed plant response rating (0 to 100 scale) ([14]; 500 g ai/ha): 0
- Ryegrass, Italian plant response rating (0 to 100 scale) [15]: 80
- Pigweed plant response rating (0 to 100 scale) ([16]; 125 g ai/ha): 0
- Pigweed plant response rating (0 to 100 scale) ([16]; 500 g ai/ha): 0
- Rice plant response rating (0 to 100 scale) (rice (Oryza sativa)): 0
- Ducksalad plant response rating (0 to 100 scale) [17]: 0
